#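 Five concentrations, 48 hours, 96-well plates. The concentration for 50% growth inhibition is given as GI50.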 Activity calls are given as the source filed them. Rule as the data show it: active = GI50 up to about 1.1 µM and inactive = higher.
# Key:
# Experiment in all cases: growth of human tumour cells (NCI), 48 h
# SK-MEL-5 = system: SK-MEL-5
# HT-29 = system: HT-29
# SN12C = system: SN12C
# LOX IMVI = system: LOX IMVI
# MOLT-4 = system: MOLT-4
# U-251 = system: U-251
# EKVX = system: EKVX
# OVCAR-8 = system: OVCAR-8
# SK-OV-3 = system: SK-OV-3
# KM12 = system: KM12
# HOP-62 = system: HOP-62
# SNB-75 = system: SNB-75
# IGROV-1 = system: IGROV-1
# SK-MEL-2 = system: SK-MEL-2
# M14 = system: M14
# SK-MEL-28 = system: SK-MEL-28
# A498 = system: A498
# NCI-H522 = system: NCI-H522
# OVCAR-5 = system: OVCAR-5
# TK-10 = system: TK-10
# DMS-114 = system: DMS-114
# CAKI-1 = system: CAKI-1
# COLO 205 = system: COLO 205
# NCI-H23 = system: NCI-H23
# RXF 393 = system: RXF 393
# SW-620 = system: SW-620
# SNB-19 = system: SNB-19
# HL-60 = system: HL-60
# LXFL 529 = system: LXFL 529
# NCI-H226 = system: NCI-H226
# HCC 2998 = system: HCC 2998
# Malme-3M = system: Malme-3M
# SF-539 = system: SF-539
# KM-20L2 = system: KM-20L2
# HCT-15 = system: HCT-15
# SF-268 = system: SF-268
# NCI-H460 = system: NCI-H460
# UACC-257 = system: UACC-257
# DMS-273 = system: DMS-273
# 786-0 = system: 786-0
# OVCAR-3 = system: OVCAR-3
# CCRF-CEM = system: CCRF-CEM
# K562 = system: K562
# UACC-62 = system: UACC-62
# DLD-1 = system: DLD-1
# OVCAR-4 = system: OVCAR-4
# XF498 = system: XF498
# RPMI-8226 = system: RPMI-8226
# SF-295 = system: SF-295
# SNB-78 = system: SNB-78
# M19-MEL = system: M19-MEL
# HOP-92 = system: HOP-92
# UO-31 = system: UO-31
# HCT-116 = system: HCT-116
# SR = system: SR
# ACHN = system: ACHN
# A549 = system: A549
# HOP-18 = system: HOP-18
smiles,measurement,setting,value
O=C1C(O)=C(CCCc2ccc(Oc3ccccc3)cc2)C(=O)c2ccccc21,GI50,SK-MEL-5,3.38 µM (inactive)
same,GI50,HT-29,30.9 µM (inactive)
same,GI50,SN12C,10.9 µM (inactive)
same,GI50,LOX IMVI,3.57 µM (inactive)
same,GI50,MOLT-4,4.19 µM (inactive)
same,GI50,U-251,5.64 µM (inactive)
same,GI50,EKVX,11.6 µM (inactive)
same,GI50,OVCAR-8,7.76 µM (inactive)
same,GI50,SK-OV-3,51.4 µM (inactive)
same,GI50,KM12,15.1 µM (inactive)
same,GI50,HOP-62,10.7 µM (inactive)
same,GI50,SNB-75,24.4 µM (inactive)
same,GI50,IGROV-1,6.19 µM (inactive)
same,GI50,SK-MEL-2,10.2 µM (inactive)
same,GI50,M14,10.5 µM (inactive)
same,GI50,SK-MEL-28,17.9 µM (inactive)
same,GI50,A498,10.3 µM (inactive)
same,GI50,NCI-H522,6.49 µM (inactive)
same,GI50,OVCAR-5,41.1 µM (inactive)
same,GI50,TK-10,18.4 µM (inactive)
same,GI50,DMS-114,4.73 µM (inactive)
same,GI50,CAKI-1,21.2 µM (inactive)
same,GI50,COLO 205,17.7 µM (inactive)
same,GI50,NCI-H23,4.58 µM (inactive)
same,GI50,RXF 393,14.4 µM (inactive)
same,GI50,SW-620,8.63 µM (inactive)
same,GI50,SNB-19,7.46 µM (inactive)
same,GI50,HL-60,7.94 µM (inactive)
same,GI50,LXFL 529,4.98 µM (inactive)
same,GI50,NCI-H226,10.8 µM (inactive)
same,GI50,HCC 2998,25.7 µM (inactive)
same,GI50,Malme-3M,12.9 µM (inactive)
same,GI50,SF-539,6.46 µM (inactive)
same,GI50,KM-20L2,31.3 µM (inactive)
same,GI50,HCT-15,4.28 µM
same,GI50,SF-268,7.64 µM (inactive)
same,GI50,NCI-H460,10.4 µM (inactive)
same,GI50,UACC-257,4.32 µM (inactive)
same,GI50,DMS-273,3.89 µM (inactive)
same,GI50,786-0,5.64 µM (inactive)
same,GI50,OVCAR-3,6.53 µM (inactive)
same,GI50,CCRF-CEM,18.1 µM (inactive)
same,GI50,K562,5.78 µM (inactive)
same,GI50,UACC-62,3.94 µM (inactive)
same,GI50,DLD-1,10.4 µM (inactive)
same,GI50,OVCAR-4,19.4 µM (inactive)
same,GI50,XF498,9.02 µM (inactive)
same,GI50,RPMI-8226,5.52 µM (inactive)
same,GI50,SF-295,7.78 µM (inactive)
same,GI50,SNB-78,28.1 µM (inactive)
same,GI50,M19-MEL,7.13 µM (inactive)
same,GI50,HOP-92,12.9 µM (inactive)
same,GI50,UO-31,5.92 µM (inactive)
same,GI50,HCT-116,3.7 µM (inactive)
same,GI50,SR,15.2 µM (inactive)
same,GI50,ACHN,5.93 µM (inactive)
c1cc2[se][se]c3c4cccc5[se][se]c(c(c1)c23)c54,GI50,SK-MEL-5,> 100 µM (inactive)
same,GI50,HT-29,> 100 µM (inactive)
same,GI50,SN12C,> 100 µM (inactive)
same,GI50,LOX IMVI,> 100 µM (inactive)
same,GI50,MOLT-4,> 100 µM (inactive)
same,GI50,U-251,> 100 µM (inactive)
same,GI50,OVCAR-8,> 100 µM (inactive)
same,GI50,SK-OV-3,> 100 µM (inactive)
same,GI50,KM12,> 100 µM (inactive)
same,GI50,HOP-62,> 100 µM (inactive)
same,GI50,SNB-75,> 100 µM (inactive)
same,GI50,A549,> 100 µM (inactive)
same,GI50,IGROV-1,> 100 µM (inactive)
same,GI50,SK-MEL-2,> 100 µM (inactive)
same,GI50,M14,> 100 µM (inactive)
same,GI50,SK-MEL-28,> 100 µM (inactive)
same,GI50,A498,> 100 µM (inactive)
same,GI50,NCI-H522,> 100 µM (inactive)
same,GI50,OVCAR-5,> 100 µM (inactive)
same,GI50,TK-10,> 100 µM (inactive)
same,GI50,DMS-114,> 100 µM (inactive)
same,GI50,CAKI-1,> 100 µM (inactive)
same,GI50,COLO 205,> 100 µM (inactive)
same,GI50,NCI-H23,> 100 µM (inactive)
same,GI50,RXF 393,> 100 µM (inactive)
same,GI50,HOP-18,0.331 µM (active)
same,GI50,SW-620,> 100 µM (inactive)
same,GI50,SNB-19,> 100 µM (inactive)
same,GI50,HL-60,> 100 µM (inactive)
same,GI50,LXFL 529,> 100 µM (inactive)
same,GI50,NCI-H226,> 100 µM (inactive)
same,GI50,Malme-3M,> 100 µM (inactive)
same,GI50,SF-539,> 100 µM (inactive)
same,GI50,KM-20L2,> 100 µM (inactive)
same,GI50,SF-268,> 100 µM (inactive)
same,GI50,NCI-H460,> 100 µM (inactive)
same,GI50,UACC-257,> 100 µM (inactive)
same,GI50,DMS-273,> 100 µM (inactive)
same,GI50,786-0,> 100 µM (inactive)
same,GI50,OVCAR-3,> 100 µM (inactive)
same,GI50,CCRF-CEM,> 100 µM (inactive)
same,GI50,K562,> 100 µM (inactive)
same,GI50,UACC-62,> 100 µM (inactive)
same,GI50,DLD-1,> 100 µM (inactive)
same,GI50,OVCAR-4,> 100 µM (inactive)
same,GI50,XF498,> 100 µM (inactive)
same,GI50,RPMI-8226,> 100 µM (inactive)
same,GI50,SF-295,> 100 µM (inactive)
same,GI50,SNB-78,> 100 µM (inactive)
same,GI50,M19-MEL,> 100 µM (inactive)
same,GI50,HOP-92,> 100 µM (inactive)
same,GI50,UO-31,> 100 µM (inactive)
same,GI50,HCT-116,> 100 µM (inactive)
same,GI50,SR,> 100 µM (inactive)
same,GI50,ACHN,> 100 µM (inactive)
OCCC1(O)CCC(O)CC1 (stereo not drawn),GI50,SK-MEL-5,> 100 µM (inactive)
same,GI50,HT-29,> 100 µM (inactive)
same,GI50,LOX IMVI,> 100 µM (inactive)
same,GI50,MOLT-4,> 100 µM (inactive)
same,GI50,U-251,> 100 µM (inactive)
same,GI50,EKVX,> 100 µM (inactive)
same,GI50,OVCAR-8,> 100 µM (inactive)
same,GI50,SK-OV-3,> 100 µM (inactive)
same,GI50,KM12,> 100 µM (inactive)
same,GI50,HOP-62,> 100 µM (inactive)
same,GI50,SNB-75,75.7 µM (inactive)
same,GI50,A549,> 100 µM (inactive)
same,GI50,IGROV-1,> 100 µM (inactive)
same,GI50,SK-MEL-2,> 100 µM (inactive)
same,GI50,M14,> 100 µM (inactive)
same,GI50,SK-MEL-28,> 100 µM (inactive)
same,GI50,A498,> 100 µM (inactive)
same,GI50,NCI-H522,> 100 µM (inactive)
same,GI50,OVCAR-5,> 100 µM (inactive)
same,GI50,TK-10,> 100 µM (inactive)
same,GI50,DMS-114,> 100 µM (inactive)
same,GI50,COLO 205,> 100 µM (inactive)
same,GI50,NCI-H23,> 100 µM (inactive)
same,GI50,HOP-18,> 100 µM (inactive)
same,GI50,SW-620,> 100 µM (inactive)
same,GI50,SNB-19,> 100 µM (inactive)
same,GI50,HL-60,> 100 µM (inactive)
same,GI50,LXFL 529,> 100 µM (inactive)
same,GI50,NCI-H226,> 100 µM (inactive)
same,GI50,HCC 2998,> 100 µM (inactive)
same,GI50,Malme-3M,> 100 µM (inactive)
same,GI50,SF-539,> 100 µM (inactive)
same,GI50,HCT-15,> 100 µM
same,GI50,SF-268,> 100 µM (inactive)
same,GI50,NCI-H460,> 100 µM (inactive)
same,GI50,UACC-257,> 100 µM (inactive)
same,GI50,DMS-273,> 100 µM (inactive)
same,GI50,786-0,> 100 µM (inactive)
same,GI50,OVCAR-3,> 100 µM (inactive)
same,GI50,CCRF-CEM,> 100 µM (inactive)
same,GI50,K562,> 100 µM (inactive)
same,GI50,UACC-62,> 100 µM (inactive)
same,GI50,DLD-1,> 100 µM (inactive)
same,GI50,OVCAR-4,> 100 µM (inactive)
same,GI50,RPMI-8226,> 100 µM (inactive)
same,GI50,SF-295,> 100 µM (inactive)
same,GI50,SNB-78,> 100 µM (inactive)
same,GI50,M19-MEL,> 100 µM (inactive)
same,GI50,HOP-92,> 100 µM (inactive)
same,GI50,UO-31,> 100 µM (inactive)
same,GI50,HCT-116,> 100 µM (inactive)
same,GI50,SR,> 100 µM (inactive)
Cc1c2cc[n+](C)cc2c(C)c2c1[nH]c1ccc(OC(C)C)cc12,GI50,SK-MEL-5,1.4 µM (inactive)
same,GI50,HT-29,3.06 µM (inactive)
same,GI50,SN12C,0.392 µM (active)
same,GI50,LOX IMVI,4.19 µM (inactive)
same,GI50,MOLT-4,3.16 µM (inactive)
same,GI50,EKVX,6.62 µM (inactive)
same,GI50,KM12,1.62 µM (inactive)
same,GI50,SNB-75,0.239 µM (active)
same,GI50,A549,2.01 µM (inactive)
same,GI50,IGROV-1,1.9 µM (inactive)
same,GI50,SK-MEL-2,1.66 µM (inactive)
same,GI50,M14,6.34 µM (inactive)
same,GI50,SK-MEL-28,2.97 µM (inactive)
same,GI50,A498,6.35 µM (inactive)
same,GI50,NCI-H522,1.47 µM (inactive)
same,GI50,OVCAR-5,10.9 µM (inactive)
same,GI50,TK-10,19.8 µM (inactive)
same,GI50,COLO 205,1.28 µM (inactive)
same,GI50,NCI-H23,1.41 µM (inactive)
same,GI50,HOP-18,2.54 µM (inactive)
same,GI50,SW-620,2.49 µM (inactive)
same,GI50,HL-60,2.56 µM (inactive)
same,GI50,LXFL 529,0.515 µM (active)
same,GI50,Malme-3M,1.34 µM (inactive)
same,GI50,SF-539,1.39 µM (inactive)
same,GI50,KM-20L2,3.58 µM (inactive)
same,GI50,HCT-15,> 100 µM
same,GI50,SF-268,0.474 µM (active)
same,GI50,NCI-H460,2.15 µM (inactive)
same,GI50,UACC-257,2.37 µM (inactive)
same,GI50,DMS-273,2.19 µM (inactive)
same,GI50,OVCAR-3,1.9 µM (inactive)
same,GI50,UACC-62,2.51 µM (inactive)
same,GI50,OVCAR-4,2.16 µM (inactive)
same,GI50,RPMI-8226,6.1 µM (inactive)
same,GI50,M19-MEL,1.64 µM (inactive)
same,GI50,HOP-92,2.6 µM (inactive)
same,GI50,UO-31,44.1 µM (inactive)
same,GI50,HCT-116,2.91 µM (inactive)
same,GI50,ACHN,11.6 µM (inactive)

# — ChEMBL document CHEMBL1201862, “PubChem BioAssay data set” (2004)
